Results from patent US9447086B2, “6-amino acid heteroaryldihydropyrimidines for the treatment and prophylaxis of hepatitis B virus infection” (priority 2012, dated 2016).
Converted amounts (≈) assume the structure as drawn.

Experiments:
HBV = assay: Anti-HBV activity in vitro in HepG2.2.15 cells (extracellular HBV DNA by qPCR); assay type: cell-based, Hepatitis B virus; settings: Hepatitis B virus; HepG2.2.15 cells; in-house data; read-out: EC50
From the text: HepG2.2.15 and HepDE19 are stably-transfected cell lines containing the HBV genome. Both cell lines are derived from the hepatoblastoma cell line Hep G2 (American Type Culture Collection, ATCC® HB-8065™) by the published procedures described in references: MA Selles et al. Proc. Natl. Acad. Sci. USA 1987, 84, 1005-1009 and H Guo et al. Journal of Virology 2007, 81, 12472-12484, respectively. Both cell lines were maintained in Dulbecco's modified Eagle's medium (DMEM)-F12 medium supplemented with 10% fetal bovine serum, 100 U/mL penicillin, 100 μg/mL streptomycin, and 0.5 mg/mL of G418.
While HepG2.2.15 cells constitutively support HBV replication and production of virus particles, HepDE19 cells are inducible by tetracycline. Addition of 1 μg/mL tetracycline in culture medium suppresses HBV replication in HepDE19 cells, whereas switching to tetracycline-free medium resumes this process.
HepG2.2.15 cells were seeded into 96-well plates (3×10^4 cells in 100 μl media per well) and incubated overnight at 37° C. The test compounds were serially half-log diluted in DMSO, then diluted 100 times in culture media. 100 μL diluted compounds were added into the plates to reach 0.5% final concentration of DMSO in every well. Five days after compound treatment, culture supernatant was collected for further analysis.
For quantitative PCR detection of extracellular HBV DNA, 100 μL culture supernatant was collected and processed in MagNA Pure 96 Nucleic Acid Purification System (Roche Applied Science) for viral DNA extraction. The extracted samples were subjected to HBV DNA quantification by qPCR.
The compounds of the present invention were tested for their capacity to inhibit a HBV activity and activation as described herein.

[1] = Metabolic stability study in human microsome; assay type: in vitro ADME
Procedure: Human Microsomes were preincubated with test compound for 10 min at 37° C. in 100 mM phosphate buffer, pH 7.4. The reactions were initiated by adding NADPH or NADPH regenerating system to give a final incubation volume of 400 μL. For NADPH system, the final incubations contained 1 μM test compound, 0.5 mg/mL liver microsomal protein, 1 mM NADPH in 100 mM phosphate buffer, pH 7.4. For the NADPH regenerating system, the final incubations contained 1 μM test compound, 0.5 mg/mL liver microsomal protein, 3 mM glucose 6-phosphate, 1 mM NADP, 3 mM MgCl2 and 0.05 mg/mL glucose 6-phosphate dehydrogenase in 100 mM phosphate buffer, pH 7.4. After incubation times of 0, 3, 6, 9, 15 and 30 minutes at 37° C., 50 μL samples was removed and transferred to 150 μL methanol solution which was maintained at 4° C. containing 2 μM tolbutamide (internal standard) to terminating the reaction. Following precipitation and centrifugation, the amount of compound remaining in the samples were determined by LC-MS/MS. Controls of no NADPH or NADPH regenerating system at zero and 30 min were also prepared and analyzed.

[2] = Lyophilisation solubility assay (Lysa); assay type: physicochemical; settings: phosphate buffer, pH 6.5, aqueous buffer, thermodynamic from solid
Procedure: The aqueous solubility is an important physico-chemical property that plays a significant role in various physical and biological processes. It is desirable to have good solubility which enables good permeability and gastric and intestinal absorption, linear dose proportionality, less PK variability, and easy formulation for PD/PK studies. […] Lyophilisation solubility assay (Lysa) is a well adopted high throughput assay to measure compound solubility in industry.
Samples are prepared in duplicate from 10 mM DMSO stock solutions. After evaporation of DMSO with a centrifugal vacuum evaporator, the residue is solved in 0.05 M phosphate buffer (pH 6.5), stirred for one hour and shaken for two hours. After one night, the solutions is filtered using a microtiter filter plate and the filtrate and its 1/10 dilution are then analyzed by direct UV measurement or by HPLC-UV. […] The results are in μg/mL.

Row | SMILES | EC50 (HBV) [µM] | Human Hepatic Clearance [1] [mL/min/kg] | solubility thermodynamic [2] [µg/mL]
1 | COC(=O)C1=C(CN2CC(F)(F)C[C@H]2C(=O)O)NC(c2ccc(F)cc2F)=N[C@H]1c1ccc(F)cc1Cl [Example 33, (R)-6-((S)-2-Carboxy-4,4-difluoro-pyrrolidin-1-ylmethyl)-4-(2-chloro-4-fluoro-phenyl)-2-(2,4-difluoro-phenyl)-1,4-dihydro-pyrimidine-5-carboxylic acid methyl ester] | 0.023 | 4.15 | 
2 | COC(=O)C1=C(CN2CC(F)(F)CC[C@@H]2C(=O)O)NC(c2nccs2)=N[C@H]1c1cccc(F)c1Cl [Example 110, (R)-6-((R)-2-Carboxy-5,5-difluoro-piperidin-1-ylmethyl)-4-(2-chloro-3-fluoro-phenyl)-2-thiazol-2-yl-1,4-dihydro-pyrimidine-5-carboxylic acid methyl ester] | 0.042 | 2.41 | > 661
3 | CCCOC(=O)C1=C(CN2CCOC[C@H]2C(=O)O)NC(c2nccs2)=N[C@H]1c1ccc(F)cc1Cl [Example 99, (S)-4-[6-(2-Chloro-4-fluoro-phenyl)-5-propoxycarbonyl-2-thiazol-2-yl-3,6-dihydro-pyrimidin-4-ylmethyl]-morpholine-3-carboxylic acid] | 0.012 | 2.13 | > 677
4 | CC(C)OC(=O)C1=C(CN2CCOC[C@H]2C(=O)O)NC(c2nccs2)=N[C@H]1c1ccc(F)c(F)c1 [Example 100, (S)-4-[(S)-6-(3,4-Difluoro-phenyl)-5-isopropoxycarbonyl-2-thiazol-2-yl-3,6-dihydro-pyrimidin-4-ylmethyl]-morpholine-3-carboxylic acid] | 0.035 | 0.1 | > 656
5 | COC(=O)C1=C(CN2CCOC[C@H]2C(=O)O)NC(c2nc(C)cn2C)=NC1c1ccc(F)cc1Cl (stereo in doubt) [Example 92, (S)-4-[(S)-6-(2-Chloro-4-fluoro-phenyl)-2-(1,4-dimethyl-1H-imidazol-2-yl)-5-methoxycarbonyl-3,6-dihydro-pyrimidin-4-ylmethyl]-morpholine-3-carboxylic acid] | 0.014 | 1.26 | > 602
6 | CCOC(=O)C1=C(CN2CC(F)(F)C[C@H]2C(=O)O)NC(c2nccs2)=N[C@H]1c1ccc(C#N)cc1 [Example 48, (S)-6-((S)-2-Carboxy-4,4-difluoro-pyrrolidin-1-ylmethyl)-4-(4-cyano-phenyl)-2-thiazol-2-yl-1,4-dihydro-pyrimidine-5-carboxylic acid ethyl ester] | 0.028 | 3.12 | > 635
7 | COC(=O)C1=C(CN2CC(F)(F)C[C@H]2C(=O)O)NC(c2nc(SC)cs2)=N[C@H]1c1ccc(F)cc1Cl [Example 62, (2S)-1-[[(4R)-4-(2-Chloro-4-fluorophenyl)-5-methoxycarbonyl-2-(4-methylsulfanyl-1,3-thiazol-2-yl)-1,4-dihydropyrimidin-6-yl]methyl]-4,4-difluoropyrrolidine-2-carboxylic acid] | 0.014 | 9.06 | 
8 | COC(=O)C1=C(CN2CCOC[C@H]2C(=O)O)NC(c2nccs2)=N[C@H]1c1ccc(Br)c(F)c1F [Example 45, (5)-4-[(R)-6-(4-Bromo-2,3-difluoro-phenyl)-5-methoxycarbonyl-2-thiazol-2-yl-3,6-dihydro-pyrimidin-4-ylmethyl]-morpholine-3-carboxylic acid] | 0.028 | 4.69 | > 695
9 | CCOC(=O)C1=C(CN2CC(F)(F)C[C@H]2C(=O)O)NC(c2nccs2)=NC1c1ccc(F)c(F)c1Cl (stereo in doubt) [Example 55, (R)-6-((S)-2-Carboxy-4,4-difluoro-pyrrolidin-1-ylmethyl)-4-(2-chloro-3,4-difluoro-phenyl)-2-thiazol-2-yl-1,4-dihydro-pyrimidine-5-carboxylic acid ethyl ester] | 0.001 |  | > 670
10 | CCOC(=O)C1=C(CN2CCOC[C@H]2C(=O)O)NC(c2nccs2)=N[C@H]1c1cc(F)cc(Cl)c1 [Example 125, (3S)-4-[[(4S)-4-(3-Chloro-5-fluorophenyl)-5 ethoxycarbonyl-2-(1,3-thiazol-2-yl)-1,4-dihydropyrimidin-6-yl]methyl]morpholine-3 carboxylic acid] | 0.03 | 1.32 | > 636
11 | COC(=O)C1=C(CN2CC(F)(F)C[C@H]2C(=O)O)NC(c2nc(C)cn2C)=NC1c1ccc(F)cc1Cl (stereo partly drawn) [Example 20, 6-((S)-2-Carboxy-4,4-difluoro-pyrrolidin-1-ylmethyl)-4-(2-chloro-4-fluoro-phenyl)-2-(1,4-dimethyl-1H-imidazol-2-yl)-1,4-dihydro-pyrimidine-5-carboxylic acid methyl ester] |  | 10.74 | 683 (≈ 1300 µM)
12 | COC(=O)C1=C(CN2CCOC[C@H]2C(=O)O)NC(c2cc(C)ccn2)=N[C@H]1c1ccc(F)cc1Cl [Example 9, (S)-4-[(R)-6-(2-Chloro-4-fluoro-phenyl)-5-methoxycarbonyl-2-(4-methyl-pyridin-2-yl)-3,6-dihydro-pyrimidin-4-ylmethyl]-morpholine-3-carboxylic acid] |  | 10.07 | > 645
13 | COC(=O)C1=C(CN2CC(F)(F)C[C@H]2C(=O)O)NC(c2ncccc2F)=N[C@H]1c1ccc(F)cc1Cl [Example 22, (R)-6-((S)-2-Carboxy-4,4-difluoro-pyrrolidin-1-ylmethyl)-4-(2-chloro-4-fluoro-phenyl)-2-(3-fluoro-pyridin-2-yl)-1,4-dihydro-pyrimidine-5-carboxylic acid methyl ester] |  | 4.82 | 630 (≈ 1200 µM)
14 | COC(=O)C1=C(CN2CCSC(C)(C)[C@H]2C(=O)O)NC(c2nccs2)=N[C@H]1c1ccc(F)cc1Cl [Example 90, (3R)-4-[[(4R)-4-(2-Chloro-4-fluoro-phenyl)-5-methoxycarbonyl-2-thiazol-2-yl-1,4-dihydropyrimidin-6-yl]methyl]-2,2-dimethyl-thiomorpholine-3-carboxylic acid] |  | 5.52 | > 610
15 | COC(=O)C1=C(CN2CC(F)(F)C[C@H]2C(=O)O)NC(c2nccs2)=N[C@H]1c1ccc(Cl)cc1F [Example 76, (R)-6-((S)-2-Carboxy-4,4-difluoro-pyrrolidin-1-ylmethyl)-4-(4-chloro-2-fluoro-phenyl)-2-thiazol-2-yl-1,4-dihydro-pyrimidine-5-carboxylic acid methyl ester] |  | 1.72 | > 630
16 | COC(=O)C1=C(CN2CC(F)(F)C(C)(C)[C@H]2C(=O)O)NC(c2nccs2)=N[C@H]1c1ccc(F)cc1Cl [Example 89, (R)-6-((S)-2-Carboxy-4,4-difluoro-3,3-dimethyl-pyrrolidin-1-ylmethyl)-4-(2-chloro-4-fluoro-phenyl)-2-thiazol-2-yl-1,4-dihydro-pyrimidine-5-carboxylic acid methyl ester] |  | 6.13 | > 525
17 | COC(=O)C1=C(CN2CC(F)(F)C[C@H]2C(=O)O)NC(c2nccs2)=N[C@H]1c1ccccc1Br [Example 72, (R)-4-(2-Bromo-phenyl)-6-((S)-2-carboxy-4,4-difluoro-pyrrolidin-1-ylmethyl)-2-thiazol-2-yl-1,4-dihydro-pyrimidine-5-carboxylic acid methyl ester] |  | 5.16 | > 670
